Data as given in US4464371A, “Five-membered heterocyclic compounds” (Santen Pharmaceutical Co., Ltd., priority 1980, dated 1984).

What was measured:
Acute toxicity test = format: in vivo, male mice; conditions: mouse, in vivo; intravenous, administered as aqueous sodium hydroxide solution, male mice
Source text: (§1) Acute toxicity of (2R,4R)--3--[S--[4--(dipropylsulfamoyl)--benzoyl]--3--mercaptopropionyl]-- 2--(2--hydroxyphenyl)--4--thiazolidinecarboxylic acid is shown in the table.
(§2) *^1 administered as tragacanth
(§3) *^2 administered as aqueous sodium hydroxide solution
(§4) Animals used in this test were ten male mice in each route.

mice = assay: Acute toxicity test; format: in vivo, male mice
Source text: as §1, §2, §3, §4

[1] = system: blood pressure of spontaneously hypertensive rats; assay: Hypotensive effect in spontaneously hypertensive rats (oral, indirect tail-cuff method); format: in vivo, Male spontaneously hypertensive rats (Charles River); conditions: 10 mg/Kg and 30 mg/Kg, suspended in 0.5% tragacanth, male spontaneously hypertensive rats
Protocol: Male spontaneously hypertensive rats (Charles River) weighing 370-430 g (37-43 weeks of age) were used.
The subject compound, suspended in 0.5% tragacanth, was given orally to the animals. Their blood pressure was measured by indirect tail-cuff method using a programmed electrosphygmomanometer.
In the figure, line 1 and line 2 represent the hypotensive effect by the compound of this invention at doses of 30 mg/Kg and 10 mg/Kg, respectively, line 3 that by the reference compound at a dose of 30 mg/Kg, and line 4 control (no drugs).

SMILES: CCCN(CCC)S(=O)(=O)c1ccc(C(=O)SCCC(=O)N2[C@@H](c3ccccc3O)SC[C@H]2C(=O)O)cc1 [Example 1, (2R,4R)--3--[S--[4--(Dipropylsulfamoyl)benzoyl]--3--mercaptopropionyl]--2-- (2--hydroxyphenyl)--4--thiazolidinecarboxilic acid]
- LD50 (Acute toxicity test): > 500 mg/kg
- LD50 (deaths observed) (mice; mouse, in vivo, po, 1000 mg/kg): No death was observed
- acute toxicity (overall) (mice; oral and intravenous, male mice): low toxicity
- decrease of blood pressure (hypotensive effect) [1]: clearly decreased the blood pressure
